Data on 1 compound can be found in publication PMC12901191, “Detection and pharmacokinetics of licochalcone A in brains of neuroinflammatory mouse model” (Naunyn-Schmiedeberg's Archives of Pharmacology, 2025).

Details of data set [1]: method as in Weng et al. [2019]. The following applies: ref Weng et al. [2019], cited from earlier work.
Data set [2] concerns LPS-neuroinflammatory mouse model. As to the kind of experiment: Novel object recognition (NOR) test in LPS-neuroinflammatory mouse model. The format is in vivo, Swiss albino mice. The following applies: drug control group (saline + LCA 20 mg/kg ip) vs control group. The source says: A neuroinflammatory mouse model induced by LPS was developed as described before by Lee et al. ([2008a]). This neuroinflammatory model was well-characterized previously by our research group, showing memory impairment, neuroinflammation, and neurodegenerative changes in the cortex and hippocampus (Zakaria et al. [2016]; Abdel-Kader et al. [2021]; Samir et al. [2023]; Wagdy et al. [2023]).
(§1) Mice were divided randomly into four groups as follows: (i) control group, mice received vehicle injections (saline followed by DMSO/corn-oil vehicle); (ii) LPS onlygroup, LPS followed by the DMSO/corn-oil vehicle; (iii) treatment group, LPS followed by LCA; and (iv) drug control group, saline followed by LCA. […] This timing also avoids potential direct pharmacological interaction and is consistent with previous post-LPS treatment protocols (Zakaria et al. [2016]; Badshah et al. [2016]).
(§2) The behavioral assessment was performed 24 h after the final dose (day 8), after which all mice were sacrificed, and their brains were collected for subsequent bioanalysis (Fig. 1).
A total number of 40 mice were randomly assigned into four groups (n = 10 per group) before performing the behavioral experiments and kept blinded throughout the study until all data had been collected. The experimental unit in these assays was a single animal, and the primary outcomes were memory and cognitive functions. […]

The nature of data set [3]: Pharmacokinetic study of LCA in mice brain tissues (non-compartmental analysis). The format is in vivo, Swiss albino mice. The procedure: (§3) Mice were sacrificed by cervical dislocation, and their brains were collected and separated from the cerebellum. The collected brains were washed with ice-cold Tris buffer (5 mM, pH 7.4) and then homogenized with 1 mL of the Tris buffer/100 mg brain using the 5-mL Dounce homogenizer. The brain homogenates were stored at − 80 °C till analysis. […] The homogenization included the entire brain components, allowing for a comprehensive analysis of LCA in the samples.
Brain homogenates were removed from the − 80 °C freezer and allowed to come to room temperature. Brain matrix extraction was performed as described before (Paulke et al. [2006]) with slight modifications. Briefly, in tightly sealed polypropylene tubes, 300 µL brain homogenate was mixed with 300 µL methanol, 200 µL tert-butyl hydroquinone (TBHQ) solution (5 mg/mL), and 200 µL HCl (1 M). The reaction mixture was vortexed for 1 min and inserted into a heat block at 90 °C for 2 h. The reaction tubes were then centrifuged at 3700 × g for 10 min, and the supernatant was collected in micro-centrifuge tubes and transferred for derivatization.
The chosen method for derivatization in this study involves silylation, utilizing the N, O-Bis(trimethylsilyl) trifluoroacetamide (BSTFA) as a silylating agent. The derivatization reaction is employed to produce silyl derivatives of the analyte, which are more volatile and more thermally stable. The reaction replaces active hydrogens with trimethylsilyl groups (TMS) through SN2 nucleophilic attack (Halket and Zaikin [2003]). Extracted samples or reference standards were first placed in a vacuum concentrator for 2 h before performing the derivatization reaction to ensure complete dryness. Dried sample residues were derivatized by adding 150 µL of the mixture of BSTFA and pyridine in a (4:1) ratio into the samples’ tubes. The derivatization reaction was performed at 60 °C for 1 h (Fig. 2). The tubes were centrifuged at 21,460 × g for 1 min and transferred to glass vials suitable for GC–MS/MS analysis.
For pharmacokinetic analysis, 30 adult male Swiss albino mice were randomly divided into six groups (n = 5 for each group), according to sample collection times. […] Mice were sacrificed, and brain tissues were collected after 0, 2, 4, 6, 8, and 24 h post-dosing and were then kept at − 80 °C before sample treatment. Collected brain samples were then extracted and derivatized as described previously and then further analyzed using the GC–MS/MS in MRM mode using the established MRM transitions. Pharmacokinetic parameters were determined by non-compartmental analysis using PK solutions software, version 2.0 (Summit Research Services).

Data set [4] has as its system LPS-neuroinflammatory mouse model. As to the kind of experiment: Y-maze spontaneous alternation test in LPS-neuroinflammatory mouse model. In kind it is in vivo, Swiss albino mice. The method, then: A neuroinflammatory mouse model induced by LPS was developed as described before by Lee et al. ([2008a]). This neuroinflammatory model was well-characterized previously by our research group, showing memory impairment, neuroinflammation, and neurodegenerative changes in the cortex and hippocampus (Zakaria et al. [2016]; Abdel-Kader et al. [2021]; Samir et al. [2023]; Wagdy et al. [2023]). […]
The short-term spatial working memory and exploratory activity of the mice were assessed using the Y-maze spontaneous alteration test, according to the working protocol of Arai et al. ([2001]). […] The sequences of animal’s entries in the arms were recorded. For an entry to be counted, the four paws and the tail of the animal have to be inside the arm. […] Working memory was calculated based on the number of spontaneous alternations, which is defined as successive entries into three distinct arms consecutively without any repeated entry to any of the arms. The results were expressed as “spontaneous alternation percentage” using the equation: % spontaneous alternation = [Spontaneous alternations/(Total number of entries − 2)] × 100.

The nature of data set [5]: Permeability of LCA across BBB: GC-MS/MS detection and quantification in brain tissue after the treatment regimen. The format is in vivo, Swiss albino mice. The following applies: treated (LPS + LCA) and drug control groups; peak at RT 11.22 min.
Excerpt: as §1, §2, §3
Brain homogenates were removed from the − 80 °C freezer and allowed to come to room temperature. […]
For both qualitative and quantitative analysis on mice brain samples, the MSD was operated in time-segmented MRM mode for the selected transition ions.

[6] abbreviates: intravenous 5 mg/kg single dose.
Where [7] appears, read: male, Swiss albino, mouse, brain, ip, 20 mg/kg.
The mark [8] stands for this setting: single ip 20 mg/kg LCA after 7 days LPS, brain tissue, mean ± SD, n = 5.

Like-named read-outs stand apart in the source and are kept apart here.

One may read the Tmax as the time at which the peak concentration occurs. Broadly, the half-life is the time in which the quantity being followed falls by half. A higher half-life goes with slow loss. Take `C=CC(C)(C)c1cc(/C=C/C(=O)c2ccc(O)cc2)c(OC)cc1O` [LCA, (2E)−3-[4-Hydroxy-2-methoxy-5-(2-methylbut-3-en-2-yl)phenyl]−1-(4-hydroxyphenyl)prop-2-en-1-one]: in data set [1] (setting [6]), the “Cmax (plasma)” value was 3.1735 ± 0.483 µg/mL and the “Tmax (plasma)” value is on record as 0.0833 h. In data set [1] (oral 15 mg/kg single dose), the “Cmax (plasma)” value was 0.0607 ± 0.0139 µg/mL and the “Tmax (plasma)” value was 0.5 h. Besides, the “non-spatial memory (NOR), LCA alone vs control” value in data set [2] is “did not show alteration”. In addition, in data set [3] (setting [7]), the Tmax was 4 h and the half-life is 17.1 ± 5.98 h. In data set [3] (male, Swiss albino, mouse, brain, ip, 20 mg/kg, read-out: MRT0-t), the MRT last was 10.5 ± 0.69 h. Also, in data set [3] (setting [8]), the Cl/F is 17.90 ± 5.33 (mg/kg)/h and the Vz/F was determined as 529.74 ± 139.18 mg/kg. Further, the “concentration in brain tissue until 8 h post-injection” value in data set [3] (single ip 20 mg/kg LCA after 7 days LPS, up to 8 h post-injection) is recorded as “above 15 µg/mg”. Moreover, the “explorative behavior / spatial short-term memory (spontaneous alternation %, Y-maze)” value in data set [4] (LPS + LCA vs LPS group, LCA 20 mg/kg ip days 4-7, LPS 250 µg/kg ip days 1-7, tested day 8, p < 0.01) is “restored the explorative behavior”. The “spatial short-term memory (Y-maze), LCA alone vs control” value in data set [4] (drug control group (saline + LCA 20 mg/kg ip) vs control group) is “did not show alteration”. Also, the “detection of LCA in brain (passage of BBB)” value in data set [5] was “presence of LCA peak”.
